Measured values as given in patent US9328138B2 (priority 2011, dated 2016).
pKi: −log10 of the molar value. Where two headings read alike, the source gives them in different places.

Columns and labels:
[1] = biological target: HCV NS3 protease genotype 3a (3A-1) (Hepatitis C virus genotype 3a, UniProt Q81258); test: HCV NS3 protease time-resolved fluorescence (TRF) assay, genotype 3a; type: biochemical
How it was run: (§1)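 Steps: compound plus NS3/NS4A enzyme for 10 minutes; add peptide substrate to 25 nM; let cleavage proceed 6 hours at room temperature; read product fluorescence (340 nm excitation, 615 nm emission, delayed 400 μs). Enzyme levels gave signal/background 5-20.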

[2] = biological target: T1, HCV genotype 1b (BK) NS3 modified enzyme with a R155K mutation (Hepatitis C virus genotype 1b, UniProt P26663, R1181K); test: HCV NS3 protease time-resolved fluorescence (TRF) assay, genotype 1b R155K; type: biochemical; settings: Ki 1b R155K
T1 construct: HCV genotype 1b (BK) NS3 modified enzyme
How it was run: as §1

[3] = genotype 1b (BK) NS3 R155K, single value

SMILES | pKi ([1]; Ki 3a) | pKi [2, 3] | pKi ([2]; first of two values printed in the cell (not explained)) | pKi ([2]; second of two values printed in the cell (not explained)) | pKi ([1]; read-out: Ki 3a)
C=C[C@@H]1C[C@]1(NC(=O)[C@@H]1C[C@@H]2CN1C(=O)[C@H](C(C)(C)C)NC(=O)O[C@@H]1C[C@H]1CCCCCc1c(nc3ccccc3c1OCCN1CC(O)C1)O2)C(=O)NS(=O)(=O)C1(C)CC1 [Example 174, (1aR,5S,8S,10R,22aR)-5-tert-butyl-N-[(1R,2S)-2-ethenyl-1-{[(1-methylcyclopropyl)sulfonyl]carbamoyl}cyclopropyl]-17-[2-(3-hydroxyazetidin-1-yl)ethoxy]-3,6-dioxo-1,1a,3,4,5,6,9,10,18,19,20,21,22,22a-tetradecahydro-8H-7,10-methanocyclopropa[18,19][1,10,3,6] dioxadiazacyclononadecino[11,12-b] quinoline-8-carboxamide] | 8.96 | 10.24 |  |  | 
C=C[C@@H]1C[C@]1(NC(=O)[C@@H]1C[C@@H]2CN1C(=O)[C@H](C1CCCC1)NC(=O)O[C@@H]1CCC[C@H]1CC/C=C/Cc1c(nc3ccccc3c1OCCCN1CCOCC1)O2)C(=O)NS(=O)(=O)C1CC1 [Example 87, (3aR,7S,10S,12R,21E,24aS)-7-cyclo pentyl-N-{(1R,2S)-1-[(cyclopropylsulfonyl)carbamoyl]-2-ethenylcyclopropyl}-19-[3-(morpholin-4-yl)propoxy]-5,8-dioxo-1,2,3,3a,5,6,7,8,11,12,20,23,24, 24a-tetradeca hydro-10H-9,12-methano cyclopenta[18,19][1,10,3,6] dioxadiazacyclononadecino [11,12-b]quinoline-10-carboxamide] | 8.49 | 9.62 |  |  | 
C=C[C@@H]1C[C@]1(NC(=O)[C@@H]1C[C@@H]2CN1C(=O)[C@H](C1CCCCC1)NC(=O)O[C@@H]1C[C@H]1CCCCCc1c(nc3ccccc3c1OCCN1CCOCC1)O2)C(=O)NS(=O)(=O)C1(C)CC1 [Example 122, (1aR,5S,8S,10R,22aR)-5-cyclohexyl-N-[(1R,2S)-2-ethenyl-1-{[(1-methylcyclopropyl)sulfonyl]carbamoyl}cyclopropyl]-17-[2-(morpholin-4-yl)ethoxy]-3,6-dioxo-1,1,a,3,4,5,6,9,10,18,19,20,21, 22,22a-tetradecahydro-8H-7,10-methanocyclopropa[18,19][1,10,3,6] dioxadiazacyclononadecino [11,12-b]quinoline-8-carboxamide] | 8.06 | 9.48 |  |  | 
C=C[C@@H]1C[C@]1(NC(=O)[C@@H]1C[C@@H]2CN1C(=O)[C@H](C1CCCC1)NC(=O)O[C@@H]1CCC[C@H]1CC/C=C/Cc1c(nc3ccccc3c1OCC(=O)O)O2)C(=O)NS(=O)(=O)C1CC1 [Example 66, {[(3aR,7S,10S,12R,21E,24aS)-7-cyclopentyl-10-({(1R,2S)-1-[(cyclopropylsulfonyl)carbamoyl]-2-ethenylcyclopropyl}carbamoyl)-5,8-dioxo-1,2,3,3a,5,6,7,8,11,12,20,23,24,24a-tetradecahydro-10H-9,12-methanocyclopenta[18,19][1,10,3,6]dioxadiazacyclononadecino[11,12-b]quinolin-19-yl]oxy}acetic acid] | 7.60 | 10.11 |  |  | 
C=C[C@@H]1C[C@]1(NC(=O)[C@@H]1C[C@@H]2CN1C(=O)[C@H](C(C)(C)C)NC(=O)O[C@@H]1C[C@H]1CCCCCc1c(nc3ccccc3c1-c1ccncc1)O2)C(=O)NS(=O)(=O)C1(C)CC1 [Example 244, (1aR,5S,8S,10R,22aR)-5-tert-butyl-N-[(1R,2S)-2-ethenyl-1-{[(1-methylcyclopropyl)sulfonyl]carbamoyl}cyclopropyl]-3,6-dioxo-17-(pyridin-4-yl)-1,1a,3,4,5,6,9,10,18,19,20,21,22,22a-tetradecahydro-8H-7,10-methanocyclopropa[18,19][1,10,3,6]dioxadiazacyclononadecino[11,12-b]quinoline-8-carboxamide] | 6.53 |  | 8.80 | 8.78 | 
C=C[C@@H]1C[C@]1(NC(=O)[C@@H]1C[C@@H]2CN1C(=O)[C@H](C(C)(C)C)NC(=O)O[C@@H]1C[C@H]1CCCCCc1c(nc3ccccc3c1O[C@@H]1C[C@H]3C[C@@H]1CN3CCOC)O2)C(=O)NS(=O)(=O)C1(C)CC1 [Example 231, (1aR,5S,8S,10R,22aR)-5-tert-butyl-N-[(1R,2S)-2-ethenyl-1-{[(1-methylcyclopropyl)sulfonyl]carbamoyl}cyclopropyl]-17-{[(1R,4R,5R)-2-(2-methoxyethyl)-2-azabicyclo[2.2.1]hept-5-yl]oxy}-3,6-dioxo-1,1a,3,4,5,6,9,10,18,19,20,21,22,22a-tetradecahydro-8H-7,10-methanocyclopropa[18,19][1,10,3,6] dioxadiazacyclononadecino[11,12-b]quinoline-8-carboxamide] | 8.74 | 9.89 |  |  | 
C=C[C@@H]1C[C@]1(NC(=O)[C@@H]1C[C@@H]2CN1C(=O)[C@H](C(C)(C)C)NC(=O)O[C@@H]1CCC[C@H]1CC/C=C/Cc1c(nc3ccccc3c1OCCN1CCOCC1)O2)C(=O)NS(=O)(=O)C1CC1 [Example 51, (3aR,7S,10S,12R,21E,24aS)-7-tert-butyl-N-{(1R,2S)-1-[(cyclopropylsulfonyl)carbamoyl]-2-ethenylcyclopropyl}-19-[2-(morpholin-4-yl)ethoxy]-5,8-dioxo-1,2,3,3a,5,6,7,8,11,12, 20,23,24,24a-tetradeca hydro-10H-9,12-methanocyclopenta[18,19][1,10,3,6] dioxadiazacyclononadecino[11,12-b] quinoline-10-carboxamide] | 8.72 | 9.68 |  |  | 
C=C[C@@H]1C[C@]1(NC(=O)[C@@H]1C[C@@H]2CN1C(=O)[C@H](C1CCCC1)NC(=O)O[C@@H]1CCC[C@H]1CC/C=C/Cc1c(nc3ccccc3c1OCCN1CCCC1=O)O2)C(=O)NS(=O)(=O)C1CC1 [Example 79, (3aR,7S,10S,12R,21E,24aS)-7-cyclo pentyl-N-{(1R,2S)-1-[(cyclopropylsulfonyl)carbamoyl]-2-ethenylcyclopropyl}-5,8-dioxo-19-[2-(2-oxopyrrolidin-1-yl)ethoxy]-1,2,3,3a,5,6,7,8,11,12,20,23,24,24a-tetradeca hydro-10H-9,12-methanocyclopenta[18,19][1,10,3,6] dioxadiaza cyclononadecino[11,12-b]quinoline-10-carboxamide] | 8.74 | 10.22 |  |  | 
C=C[C@@H]1C[C@]1(NC(=O)[C@@H]1C[C@@H]2CN1C(=O)[C@H](C(C)(C)C)NC(=O)O[C@@H]1C[C@H]1CCCCCc1c(nc3ccccc3c1OCCCNC1CCCc3ccccc31)O2)C(=O)NS(=O)(=O)C1(C)CC1 (stereo partly drawn) [Example 204, (1aR,5S,8S,10R,22aR)-5-tert-butyl-N-[(1R,2S)-2-ethenyl-1-{[(1-methylcyclopropyl)sulfonyl]carbamoyl}cyclopropyl]-3,6-dioxo-17-[3-(1,2,3,4-tetrahydronaphthalen-1-ylamino)propoxy]-1,1a,3,4,5,6,9,10,18,19, 20,21,22,22a-tetradecahydro-8H-7,10-methanocyclopropa[18,19][1,10,3,6] dioxadiazacyclononadecino[11,12-b] quinoline-8-carboxamide] | 8.62 | 9.82 |  |  | 
C=C[C@@H]1C[C@]1(NC(=O)[C@@H]1C[C@@H]2CN1C(=O)[C@H](C1CCCCC1)NC(=O)O[C@@H]1C[C@H]1CCCCCc1c(nc3ccccc3c1OCCCN1CCC(C(F)(F)F)CC1)O2)C(=O)NS(=O)(=O)C1(C)CC1 [Example 167] | 7.39 | 8.89 |  |  | 
C=C[C@@H]1C[C@]1(NC(=O)[C@@H]1C[C@@H]2CN1C(=O)[C@H](C1CCCC1)NC(=O)O[C@]1(C)CCC[C@H]1CC/C=C/Cc1c(nc3ccccc3c1OCc1ccccc1)O2)C(=O)NS(=O)(=O)C1CC1 [Example 14, (3aR,7S,10S,12R,21E,24aS)-19-(benzyloxy)-7-cyclopentyl-N-{(1R,2S)-1-[(cyclopropylsulfonyl)carbamoyl]-2-ethenylcyclopropyl}-3a-methyl-5,8-dioxo-1,2,3,3a,5,6,7,8,11,12,20,23,24,24a-tetradecahydro-10H-9,12-methanocyclopenta[18,19] [1,10,3,6]dioxadiazacyclononadecino[11,12-b] quinoline-10-carboxamide] |  | 9.09 |  |  | 7.55
C=CC1C[C@]1(NC(=O)[C@@H]1C[C@@H]2CN1C(=O)[C@H](C(C)(C)C)NC(=O)O[C@@H]1CCC[C@H]1CCCCCc1c(nc3ccccc3c1OCCN1CCOCC1)O2)C(=O)NS(=O)(=O)C1(C(=C)C)CC1 (some centres unmarked) [Example 62] | 7.07 | 8.80 |  |  | 
C=C[C@@H]1C[C@]1(NC(=O)[C@@H]1C[C@@H]2CN1C(=O)[C@H](C(C)(C)C)NC(=O)O[C@@H]1C[C@H]1CCCCCc1c(nc3cc(C)ccc3c1OCCCN1CC[C@H](N(C)C)C1)O2)C(=O)NS(=O)(=O)C1(C)CC1 [Example 148, (1aR,5S,8S,10R,22aR)-5-tert-butyl-17-{3-[(3S)-3-(dimethylamino)pyrrolidin-1-yl]propoxy}-N-[(1R,2S)-2-ethenyl-1-{[(1-methylcyclopropyl)ulfonyl]carbamoyl}cyclopropyl]-14-methyl-3,6-dioxo-1,1a,3,4,5,6,9,10,18,19,20,21,22,22a-tetradecahydro-8H-7,10-methanocyclopropa[18,19] [1,10,3,6]dioxadiazacyclononadecino [11,12-b]quinoline-8-carboxamide] | 9.13 | 10.19 |  |  | 
C=C[C@@H]1C[C@]1(NC(=O)[C@@H]1C[C@@H]2CN1C(=O)[C@H](C(C)(C)C)NC(=O)O[C@@H]1C[C@H]1CCCCCc1c(nc3ccccc3c1OC1CN(CC3CC3)C1)O2)C(=O)NS(=O)(=O)C1(C)CC1 [Example 223, (1aR,5S,8S,10R,22aR)-5-tert-butyl-17-{[1-(cyclopropylmethyl)azetidin-3-yl]oxy}-N-[(1R,2S)-2-ethenyl-1-{[(1-methylcyclopropyl)sulfonyl]carbamoyl}cyclopropyl]-3,6-dioxo-1,1a,3,4,5,6,9,10,18,19,20,21,22,22a-tetradecahydro-8H-7,10-methanocyclopropa[18,19][1,10,3,6]dioxadiazacyclononadecino[11,12-b]quinoline-8-carboxamide] | 8.92 | 10.26 |  |  | 
